From ChEMBL document CHEMBL5154699 (Eur J Med Chem, 2022)

Assays:
[1] = target: Mu-type opioid receptor (Cavia porcellus, UniProt P97266); assay: Displacement of [3H]-DAMGO from MOR in guinea pig brain membranes measured by competitive radioligand receptor binding assay; type: cell membranes, Membrane
[2] = target: T1, Sigma intracellular receptor 2 (Rattus norvegicus, UniProt Q5U3Y7); assay: Displacement of [3H]-di-o-tolylguanidine from sigma2 receptor in rat liver membrane measured by competitive radioligand receptor binding assay; type: cell membranes
T1 sequence (Q5U3Y7 whole entry): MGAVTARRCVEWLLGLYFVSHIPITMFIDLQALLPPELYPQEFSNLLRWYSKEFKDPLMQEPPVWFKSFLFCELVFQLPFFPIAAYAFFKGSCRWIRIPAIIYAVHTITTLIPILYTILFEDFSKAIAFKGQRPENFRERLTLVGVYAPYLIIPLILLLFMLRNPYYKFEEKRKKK

[3] = target: Sigma non-opioid intracellular receptor 1 (Cavia porcellus, UniProt Q60492); assay: Displacement of [3H]-(+)-pentazocine from sigma1 receptor in guinea pig brain membrane measured by competitive radioligand receptor binding assay; type: cell membranes
[4] = target: Kappa-type opioid receptor (Cavia porcellus, UniProt P41144); assay: Displacement of [3H]-U69593 from KOR in guinea pig brain membranes measured by competitive radioligand receptor binding assay; type: cell membranes, Membrane
[5] = target: Delta-type opioid receptor (Rattus norvegicus, UniProt P33533); assay: Displacement of [3H]-DPDPE from DOR in rat brain membranes measured by competitive radioligand receptor binding assay; type: cell membranes, Membrane

Row | Structure (SMILES) | Ki [1] [nM] | Ki [2] [nM] | Ki [3] [nM] | Ki [4] [nM] | Ki [5] [nM]
1 | CN(C)[C@@H]1C[C@@H]2CCN(C(=O)Cc3ccc(Cl)c(Cl)c3)[C@H]1C2 | > 1000 | 811 | 292 | 13 | 
2 | O=C(Cc1ccc(Cl)c(Cl)c1)N1CC[C@H]2C[C@@H](N3CCCC3)[C@@H]1C2 |  | 534 | 56 | 7 | 542
3 | O=C(Cc1ccc(Cl)c(Cl)c1)N1CC[C@@H]2CC[C@H](N3CCCC3)[C@H]1C2 |  | 487 |  |  | 
4 | O=C(Cc1ccc(Cl)c(Cl)c1)N1CCC2CC1[C@H](N1CCCC1)C2 (stereo partly drawn) |  |  |  | 7 | 
5 | CN(C)[C@@H]1CCC2CCN(C(=O)Cc3ccc(Cl)c(Cl)c3)C1C2 (mixture of isomers) |  | 608 |  |  | 
6 | O=C(Cc1ccc(Cl)c(Cl)c1)N1CC[C@H]2CC[C@@H](N3CCCC3)[C@@H]1C2 |  | 154 |  |  | 
7 | O=C(Cc1ccc(Cl)c(Cl)c1)N1CCCCC1CN1CCCC1 (stereo not drawn) |  |  |  | 0.24 | 
8 | O=C(Cc1ccc(Cl)c(Cl)c1)N1CCC2CC1[C@@H](N1CCCC1)C2 (stereo partly drawn) |  |  |  | 862 | 
9 | O=C(Cc1ccc(Cl)c(Cl)c1)N1CC[C@H]2C[C@@H]1[C@@H](N1CCCC1)C2 |  | 171 | 10 | 1750 | 
10 | O=C(Cc1ccc(Cl)c(Cl)c1)N1CCN2CC[C@@H](N3CCCC3)C1C2 (stereo partly drawn) |  |  |  | 73 | 
11 | COC(=O)N1CCN(C(=O)Cc2ccc(Cl)c(Cl)c2)[C@H](CN2CCCC2)C1 |  |  |  | 0.46 | 
12 | CN(C)[C@H]1C[C@H]2CCN(C(=O)Cc3ccc(Cl)c(Cl)c3)[C@@H]1C2 |  | 213 | 17 | 531 | 
13 | O=C(Cc1ccc(Cl)c(Cl)c1)N1CCN2CC[C@H](N3CCCC3)C1C2 (stereo partly drawn) |  |  |  | > 1000 | 
